The values that follow come from article PMC12087874, “Biaryl Phosphates and Phosphonates as Selective Inhibitors of the Transcription Factor STAT4” (Angewandte Chemie (International Ed. in English), 2025).

What all share (assay type): binding
For one assay, the target named is STAT3 (Homo sapiens, UniProt P40763). The assay can be described thus: Competitive fluorescence polarization (FP) assay, STAT3 SH2 domain. As to conditions: for IC50: mean ± SD, n = 3; for Ki: tracer 5-carboxyfluorescein-GpYLPQTV-NH2, Ki derived from IC50. How it is done:
(§1) Fluorescence polarization assays
(§2) Competitive fluorescence polarization assays, which measure the abilities of test compounds (dissolved in DMSO) to displace a fluorescent-labeled peptide from the SH2 domain of a STAT protein, were carried out essentially as described. Proteins were used at the following final concentrations: 23 nM or 28 nM for STAT4; between 56 nM and 91 nM for STAT1; 107 nM or 110 nM for STAT3; between 131 nM and 177 nM for STAT5a; between 62 nM and 85 nM for STAT5b; and 101 nM or 106 nM for STAT6. These concentrations represent the approximate […]
(§3) dissociation constant for peptide binding of the respective protein batches used in the assays.
(§4) The following peptides were used: 5-carboxyfluorescein-GpYLPQNID-OH for STAT4; 5-carboxyfluorescein-GpYDKPHVL for STAT1; 5-carboxyfluorescein-GpYLPQTV-NH2 for STAT3; 5-carboxyfluorescein-GpYLVLDKW for STAT5a/b, and 5-carboxyfluorescein- […]
(§5) Gp[…]-OH for STAT6. All peptides were used at a final concentration of 10 nM. The buffer consisted of 10 mM Tris (pH 8.0), 50 mM NaCl, 1 mM EDTA, 1 mM DTT, 0 .1 % Nonidet P-40 substitute, and 2 % DMSO. After incubation of protein and test compound for 1 h at room temperature, the fluorescent -labeled peptide was added. Samples were transferred to 384 - well microtiter plates and fluorescence polarization was read after an additional 60 min of incubation time. Measurements were performed in triplicate. Percent binding was calculated based on a logarithmic curve fit using OriginPro 8G software. IC 50 values were converted to Ki-values via the published equation[3] using the corresponding Excel spread sheet […]
(§6) https://websites.umich.edu/~shaomengwanglab/software/calc_ki/index.html .
(§7) Error bars represent standard deviations. Ligand efficiencies (LE) were calculated by the formula LE = -1,37 x log Ki / number of non-hydrogen atoms.[4] […]
A general note: Fluorescence polarisation rises when a labelled molecule tumbles more slowly, as on binding a larger partner.

In the next assay the target is T1, STAT5b (Homo sapiens, UniProt P51692).
T1 sequence (P51692 1-787): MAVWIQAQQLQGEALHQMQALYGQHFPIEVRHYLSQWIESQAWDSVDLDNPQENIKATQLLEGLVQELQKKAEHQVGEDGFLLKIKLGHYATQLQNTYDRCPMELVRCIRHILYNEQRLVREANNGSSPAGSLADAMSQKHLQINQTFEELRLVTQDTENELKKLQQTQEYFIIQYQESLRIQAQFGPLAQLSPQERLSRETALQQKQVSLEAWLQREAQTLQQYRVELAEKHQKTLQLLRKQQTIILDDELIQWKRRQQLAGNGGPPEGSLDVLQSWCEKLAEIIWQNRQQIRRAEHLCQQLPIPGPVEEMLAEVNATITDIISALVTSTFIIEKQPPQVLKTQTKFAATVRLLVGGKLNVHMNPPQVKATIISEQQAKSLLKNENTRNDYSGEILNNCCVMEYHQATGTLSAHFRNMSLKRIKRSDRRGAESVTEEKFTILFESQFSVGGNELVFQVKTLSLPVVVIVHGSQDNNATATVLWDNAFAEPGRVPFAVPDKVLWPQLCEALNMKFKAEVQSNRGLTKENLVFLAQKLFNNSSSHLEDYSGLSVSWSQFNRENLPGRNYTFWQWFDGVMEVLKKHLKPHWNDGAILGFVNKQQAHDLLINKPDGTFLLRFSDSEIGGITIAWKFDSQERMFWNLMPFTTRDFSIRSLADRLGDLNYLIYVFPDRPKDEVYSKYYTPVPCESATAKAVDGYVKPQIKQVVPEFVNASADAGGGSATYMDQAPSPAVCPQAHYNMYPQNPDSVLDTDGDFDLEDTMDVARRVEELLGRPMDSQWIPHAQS
Nature of the assay: Competitive fluorescence polarization (FP) assay, STAT5b SH2 domain. The following applies: for Ki: Ki derived from IC50; for IC50: mean ± SD, n = 3. The procedure:
as §1, §2, §3, §4, §5, §6, §7

For a further assay, the target named is T2, STAT4 (Homo sapiens, UniProt Q14765).
T2 sequence (Q14765 1-748): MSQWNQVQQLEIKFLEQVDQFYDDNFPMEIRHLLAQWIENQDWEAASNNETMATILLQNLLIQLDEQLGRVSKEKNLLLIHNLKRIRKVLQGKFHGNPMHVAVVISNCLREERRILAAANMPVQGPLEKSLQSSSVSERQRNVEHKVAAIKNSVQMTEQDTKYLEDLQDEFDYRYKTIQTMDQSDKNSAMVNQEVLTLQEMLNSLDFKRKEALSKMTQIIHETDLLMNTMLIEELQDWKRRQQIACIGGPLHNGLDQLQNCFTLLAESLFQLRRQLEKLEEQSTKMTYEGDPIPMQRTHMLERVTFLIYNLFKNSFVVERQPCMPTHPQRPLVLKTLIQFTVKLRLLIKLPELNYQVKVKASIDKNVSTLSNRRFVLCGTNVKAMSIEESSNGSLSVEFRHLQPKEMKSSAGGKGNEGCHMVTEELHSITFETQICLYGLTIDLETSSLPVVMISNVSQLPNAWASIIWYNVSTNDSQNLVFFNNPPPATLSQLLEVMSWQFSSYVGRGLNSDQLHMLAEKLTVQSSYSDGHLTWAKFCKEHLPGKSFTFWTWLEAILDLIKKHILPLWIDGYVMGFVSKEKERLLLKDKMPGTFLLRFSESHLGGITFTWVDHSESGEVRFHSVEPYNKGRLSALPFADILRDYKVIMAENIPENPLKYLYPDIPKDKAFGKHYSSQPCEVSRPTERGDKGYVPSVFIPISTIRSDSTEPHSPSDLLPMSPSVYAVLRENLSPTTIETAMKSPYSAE
Nature of the assay: Competitive fluorescence polarization (FP) assay, STAT4 SH2 domain. As to conditions: for Ki / IC50: FP assay, mean ± SD, n = 3; for Ki: tracer 5-carboxyfluorescein-GpYLPQNID-OH, Ki derived from IC50, read-out: STAT4 K i. How it is done:
as §1, §2, §3, §4, §5, §6, §7

Sequence of STAT3 (P40763 whole entry, species assumed, the tested form may be a part): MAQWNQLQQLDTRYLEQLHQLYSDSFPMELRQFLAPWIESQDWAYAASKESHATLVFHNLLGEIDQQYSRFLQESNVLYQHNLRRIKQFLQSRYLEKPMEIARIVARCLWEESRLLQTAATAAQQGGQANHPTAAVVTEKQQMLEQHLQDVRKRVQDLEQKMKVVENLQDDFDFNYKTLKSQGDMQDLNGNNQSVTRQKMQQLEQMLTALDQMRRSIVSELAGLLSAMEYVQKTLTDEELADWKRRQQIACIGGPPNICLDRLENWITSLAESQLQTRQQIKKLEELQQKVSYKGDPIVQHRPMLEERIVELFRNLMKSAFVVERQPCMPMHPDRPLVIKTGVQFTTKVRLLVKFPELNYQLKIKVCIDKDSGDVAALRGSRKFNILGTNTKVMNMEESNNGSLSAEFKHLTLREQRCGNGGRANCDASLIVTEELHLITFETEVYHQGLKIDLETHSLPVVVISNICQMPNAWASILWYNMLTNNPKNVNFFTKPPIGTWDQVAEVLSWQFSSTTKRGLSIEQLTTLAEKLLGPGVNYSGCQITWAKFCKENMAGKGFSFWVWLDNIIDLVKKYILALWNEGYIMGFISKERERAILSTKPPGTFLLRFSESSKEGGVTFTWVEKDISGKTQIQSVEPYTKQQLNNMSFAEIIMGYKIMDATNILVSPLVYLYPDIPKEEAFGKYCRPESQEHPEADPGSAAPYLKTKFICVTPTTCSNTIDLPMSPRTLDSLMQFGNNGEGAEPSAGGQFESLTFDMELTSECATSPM

As usually defined, the IC50 is the concentration that gives 50% inhibition. Read a low IC50 as greater potency in that assay. In the case of `O=P(O)(O)Oc1ccc(-c2ccc3ccccc3c2)cc1` [Compound 6g], the figures for the IC50 at STAT3, on STAT5b and at STAT4 were 37 ± 2 µM, 109 ± 11 µM and 0.95 ± 0.19 µM, respectively. The Ki was 18 ± 1 µM at STAT3, 53 ± 5 µM at STAT5b and 0.44 ± 0.09 µM at STAT4.

On to `O=P(O)(O)Oc1ccc(-c2ccccc2)cc1F` [Compound 6h], for which the half-maximal inhibitory concentration (IC50) amounted to 9.1 ± 0.6 µM at STAT3, 91 ± 14 µM at STAT5b and 1.2 ± 0.2 µM at STAT4. Besides, the Ki on STAT3 was determined as 4.5 ± 0.3 µM; on STAT5b it was 45 ± 7 µM; on STAT4, 0.56 ± 0.08 µM.

Take `O=P(O)(O)C(F)(F)c1ccc(-c2ccc3ccccc3c2)cc1F` [Compound 8a]: the values for the IC50 at STAT3, at STAT5b and at STAT4 were 44 ± 2 µM, 79 ± 3 µM and 8.5 ± 1 µM, respectively. Further, the Ki at STAT3 came to 22 ± 1 µM; at STAT5b it was 39 ± 1 µM; on STAT4, 4 ± 0.5 µM.

For the compound `O=P(O)(O)Oc1ccc(-c2ccccc2)cc1` [Compound 1, para‐biphenyl phosphate], on STAT3, the IC50 worked out at 18 ± 3 µM and the Ki turned out to be 8.4 ± 1 µM. Also, at STAT5b, the Ki is 47 ± 3 µM and the IC50 is 95 ± 6 µM. Also, at STAT4, the Ki was found to be 1.1 ± 0.1 µM and the IC50 worked out at 2.3 ± 0.2 µM. On STAT4 (FP assays, Ki ratio), the “selectivity for STAT4 over the SH2 domain of STAT5a” value is roughly 20 fold; the “selectivity for STAT4 over the SH2 domain of STAT5b” value is reported as roughly 40 fold; the “selectivity for STAT4 over the SH2 domains of STAT1, STAT3, and STAT6” value was 7–8 fold.

As to `Cc1cc(-c2ccc(C(F)(F)P(=O)(O)O)c(F)c2)cs1` [Compound 8k], the half-maximal inhibitory concentration (IC50) was 31 ± 4 µM on STAT3, 130 ± 14 µM on STAT5b and 3.7 ± 0.4 µM on STAT4. The Ki worked out at 15 ± 2 µM on STAT3, 64 ± 7 µM on STAT5b and 1.7 ± 0.2 µM on STAT4. Moreover, the ligand efficiency on STAT4 (LE = -1,37 x log Ki / number of non-hydrogen atoms, STAT4 Ki) turned out to be 0.39 kcal/mol.

For the compound `O=P(O)(O)Oc1ccc(-c2ccc3ccccc3c2)cc1F` [Compound 6m], the results for the IC50 at STAT3, at STAT5b and on STAT4 were 10 ± 1 µM, 52 ± 4 µM and 0.76 ± 0.01 µM, respectively. Also, the Ki on STAT3 amounted to 5 ± 0.5 µM; on STAT5b, 26 ± 2 µM; on STAT4 it was 0.35 ± 0.01 µM. In addition, on STAT4 (FP assays), the “selectivity for STAT4 over other STAT proteins” value is given as 10–70 fold.
